{
  "source": "paper PMC8674921",
  "about": "(ACS Omega, 2021)",
  "key": {"[1]": {"biological_target": "T1, hD4 receptor (CHO-D4R cells) (Homo sapiens, UniProt P21917)", "T1 sequence (P21917 1-419)": "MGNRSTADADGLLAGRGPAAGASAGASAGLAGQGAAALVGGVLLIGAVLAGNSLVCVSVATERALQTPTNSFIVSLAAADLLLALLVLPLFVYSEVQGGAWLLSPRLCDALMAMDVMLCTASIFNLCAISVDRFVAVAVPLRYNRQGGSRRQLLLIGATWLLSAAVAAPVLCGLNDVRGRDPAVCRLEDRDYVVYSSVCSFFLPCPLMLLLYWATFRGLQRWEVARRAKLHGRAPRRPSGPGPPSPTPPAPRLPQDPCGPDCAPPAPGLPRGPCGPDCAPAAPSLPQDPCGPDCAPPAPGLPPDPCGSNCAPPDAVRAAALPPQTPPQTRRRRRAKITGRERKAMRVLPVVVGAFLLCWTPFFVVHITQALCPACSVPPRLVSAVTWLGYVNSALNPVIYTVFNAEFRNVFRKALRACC", "experiment": "Functional GPCR assay, cAMP level", "format": "cell-based"}, "[2]": {"biological_target": "T2, recombinant hMAO-A (Homo sapiens, UniProt P21397)", "T2 sequence (P21397 1-527)": "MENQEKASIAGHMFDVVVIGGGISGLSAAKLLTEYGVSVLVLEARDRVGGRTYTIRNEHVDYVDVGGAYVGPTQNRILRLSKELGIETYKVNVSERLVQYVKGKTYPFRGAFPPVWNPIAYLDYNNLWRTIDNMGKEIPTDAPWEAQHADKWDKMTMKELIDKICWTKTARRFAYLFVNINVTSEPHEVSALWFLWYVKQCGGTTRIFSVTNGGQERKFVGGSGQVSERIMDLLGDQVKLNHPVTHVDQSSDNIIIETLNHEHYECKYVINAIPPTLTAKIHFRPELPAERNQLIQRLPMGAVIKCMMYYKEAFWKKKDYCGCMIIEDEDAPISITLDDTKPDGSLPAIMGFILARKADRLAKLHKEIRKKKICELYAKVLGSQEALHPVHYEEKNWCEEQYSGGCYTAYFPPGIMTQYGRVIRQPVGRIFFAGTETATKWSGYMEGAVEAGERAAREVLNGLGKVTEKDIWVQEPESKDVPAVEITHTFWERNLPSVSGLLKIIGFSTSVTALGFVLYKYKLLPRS", "experiment": "hMAO-A inhibitory assay", "format": "biochemical"}, "[3]": {"system": "BACE 1", "conditions": "read-out: IC50 BACE 1; cited from earlier work"}, "[4]": {"biological_target": "human V1AR (recombinant CHO-V1AR membrane homogenates) (Homo sapiens, UniProt P37288)", "sequence (P37288 whole entry)": "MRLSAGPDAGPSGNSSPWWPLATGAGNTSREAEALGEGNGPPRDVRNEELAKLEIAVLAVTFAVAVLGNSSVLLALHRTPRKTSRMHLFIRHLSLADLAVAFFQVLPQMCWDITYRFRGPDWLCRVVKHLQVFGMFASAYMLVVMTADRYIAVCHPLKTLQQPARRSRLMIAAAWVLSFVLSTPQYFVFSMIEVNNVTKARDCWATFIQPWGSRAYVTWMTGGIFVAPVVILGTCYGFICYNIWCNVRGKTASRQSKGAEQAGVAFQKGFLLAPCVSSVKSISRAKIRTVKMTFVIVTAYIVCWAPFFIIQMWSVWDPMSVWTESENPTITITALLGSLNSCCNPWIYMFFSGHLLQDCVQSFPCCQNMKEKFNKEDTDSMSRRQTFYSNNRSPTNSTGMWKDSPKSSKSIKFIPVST", "experiment": "Agonist radioligand binding assay, vasopressin V1A receptor", "conditions": "read-out: % inhibition of control-specific binding"}, "[5]": {"system": "BChE", "conditions": "read-out: IC50 BChE; cited from earlier work"}, "[6]": {"biological_target": "hD2L receptor (CHO-D2LR cells) (Homo sapiens, UniProt P14416)", "sequence (P14416 whole entry)": "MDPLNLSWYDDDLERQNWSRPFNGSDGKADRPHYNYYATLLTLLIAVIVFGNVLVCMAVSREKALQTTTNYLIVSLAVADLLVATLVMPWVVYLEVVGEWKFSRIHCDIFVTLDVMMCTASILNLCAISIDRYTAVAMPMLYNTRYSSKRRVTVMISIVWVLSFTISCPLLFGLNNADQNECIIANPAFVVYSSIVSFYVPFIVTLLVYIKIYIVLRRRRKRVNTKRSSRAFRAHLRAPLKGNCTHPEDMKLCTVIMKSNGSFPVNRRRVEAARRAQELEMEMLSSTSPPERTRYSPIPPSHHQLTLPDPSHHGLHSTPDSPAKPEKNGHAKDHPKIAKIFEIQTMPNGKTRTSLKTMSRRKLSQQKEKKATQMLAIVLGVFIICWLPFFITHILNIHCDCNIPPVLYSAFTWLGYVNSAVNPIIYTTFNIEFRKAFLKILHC", "experiment": "Functional GPCR assay, intracellular calcium flux, hD2L", "format": "cell-based"}, "[7]": {"biological_target": "GABAA receptors", "conditions": "read-out: EC50 GABAA receptors modulating effect; cited from earlier work"}, "[8]": {"biological_target": "human D2LR (transfected HEK-293 membrane homogenates) (Homo sapiens, UniProt P14416)", "sequence (P14416 whole entry)": "as above", "experiment": "Antagonist radioligand binding assay, D2L receptor", "conditions": "50 μM kurarinone, [3H]methylspiperone, mean of duplicate"}, "[9]": {"biological_target": "T3, h5-HT1A receptor (Ba/F3-5-HT1AR cells) (Homo sapiens, UniProt P08908)", "T3 sequence (P08908 1-422)": "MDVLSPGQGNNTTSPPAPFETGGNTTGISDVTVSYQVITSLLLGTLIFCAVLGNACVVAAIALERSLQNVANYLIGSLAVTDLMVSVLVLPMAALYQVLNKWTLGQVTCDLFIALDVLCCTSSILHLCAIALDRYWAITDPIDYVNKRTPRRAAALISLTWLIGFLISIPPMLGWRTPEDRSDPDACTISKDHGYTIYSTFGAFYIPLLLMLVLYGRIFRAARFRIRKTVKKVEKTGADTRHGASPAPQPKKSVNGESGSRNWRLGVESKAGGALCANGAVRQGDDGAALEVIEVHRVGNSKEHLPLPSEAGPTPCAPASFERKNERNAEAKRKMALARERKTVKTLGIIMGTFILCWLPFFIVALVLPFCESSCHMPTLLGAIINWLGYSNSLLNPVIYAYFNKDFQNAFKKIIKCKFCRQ", "experiment": "Functional GPCR assay, intracellular calcium mobilization, h5-HT1A"}, "[10]": {"biological_target": "T4, recombinant hMAO-B (Homo sapiens, UniProt P27338)", "T4 sequence (P27338 1-520)": "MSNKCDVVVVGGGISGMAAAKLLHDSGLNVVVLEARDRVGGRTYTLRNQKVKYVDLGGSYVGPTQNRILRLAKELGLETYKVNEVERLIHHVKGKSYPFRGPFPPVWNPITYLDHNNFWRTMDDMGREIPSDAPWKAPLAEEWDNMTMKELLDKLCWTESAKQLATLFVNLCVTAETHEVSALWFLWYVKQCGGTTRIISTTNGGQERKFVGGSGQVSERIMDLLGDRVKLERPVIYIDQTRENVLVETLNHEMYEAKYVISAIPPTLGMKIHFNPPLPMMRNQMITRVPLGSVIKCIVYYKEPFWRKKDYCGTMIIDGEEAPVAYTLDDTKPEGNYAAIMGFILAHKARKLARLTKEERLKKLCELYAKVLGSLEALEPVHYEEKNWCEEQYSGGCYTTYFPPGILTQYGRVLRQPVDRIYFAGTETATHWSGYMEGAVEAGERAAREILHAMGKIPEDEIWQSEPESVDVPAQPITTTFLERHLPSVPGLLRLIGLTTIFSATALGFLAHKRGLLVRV", "experiment": "hMAO-B inhibitory assay", "format": "biochemical"}, "[11]": {"biological_target": "human D3R (CHO-D3R membrane homogenates) (Homo sapiens, UniProt P35462)", "sequence (P35462 whole entry)": "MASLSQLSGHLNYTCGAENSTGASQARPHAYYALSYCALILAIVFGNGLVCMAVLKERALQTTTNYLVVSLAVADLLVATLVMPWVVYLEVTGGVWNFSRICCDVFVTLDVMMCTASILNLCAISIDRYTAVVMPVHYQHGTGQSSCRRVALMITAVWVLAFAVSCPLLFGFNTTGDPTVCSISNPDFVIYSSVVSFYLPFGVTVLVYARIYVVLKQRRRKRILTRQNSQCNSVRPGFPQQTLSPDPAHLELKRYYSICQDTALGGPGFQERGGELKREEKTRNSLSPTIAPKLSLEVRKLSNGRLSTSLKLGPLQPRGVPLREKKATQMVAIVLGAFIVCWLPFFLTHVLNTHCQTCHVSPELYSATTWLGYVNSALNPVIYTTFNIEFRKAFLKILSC", "experiment": "Antagonist radioligand binding assay, D3 receptor", "conditions": "read-out: % inhibition of control-specific binding"}, "[12]": {"biological_target": "T5, human D4R (CHO-D4R membrane homogenates) (Homo sapiens, UniProt P21917)", "T5 sequence (P21917 1-419)": "T1 sequence (P21917 1-419)", "experiment": "Antagonist radioligand binding assay, D4 receptor", "conditions": "50 μM kurarinone, [3H]methylspiperone, mean of duplicate"}, "[13]": {"biological_target": "hD1 receptor (CHO-D1R cells) (Homo sapiens, UniProt P21728)", "sequence (P21728 whole entry)": "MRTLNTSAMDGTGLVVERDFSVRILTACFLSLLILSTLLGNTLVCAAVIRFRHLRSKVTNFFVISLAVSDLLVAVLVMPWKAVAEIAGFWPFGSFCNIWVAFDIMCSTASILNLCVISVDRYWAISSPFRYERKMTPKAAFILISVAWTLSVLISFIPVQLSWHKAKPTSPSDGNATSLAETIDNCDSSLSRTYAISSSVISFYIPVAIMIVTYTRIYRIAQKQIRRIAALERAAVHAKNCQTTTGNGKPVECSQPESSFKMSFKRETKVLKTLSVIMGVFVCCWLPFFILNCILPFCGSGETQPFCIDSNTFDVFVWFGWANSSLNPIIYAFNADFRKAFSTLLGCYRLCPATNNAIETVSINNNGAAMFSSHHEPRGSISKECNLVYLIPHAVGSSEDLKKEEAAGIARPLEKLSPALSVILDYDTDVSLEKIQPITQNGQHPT", "experiment": "Functional GPCR assay, cAMP level", "format": "cell-based"}, "[14]": {"biological_target": "human D1R (recombinant CHO-D1R membrane homogenates) (Homo sapiens, UniProt P21728)", "sequence (P21728 whole entry)": "as above", "experiment": "Antagonist radioligand binding assay, D1 receptor", "conditions": "50 μM kurarinone, [3H]SCH-23390, mean of duplicate"}, "[15]": {"system": "AChE", "conditions": "read-out: IC50 AChE; cited from earlier work"}, "[16]": {"system": "hMAO-A", "conditions": "read-out: IC50 hMAO-A; selective hMAO-A inhibition; cited from earlier work"}, "[17]": {"conditions": "read-out: % inhibition of control agonist effect"}},
  "data": [
    {"smiles": "C=C(C)[C@H](CC=C(C)C)Cc1c(O)cc(OC)c2c1O[C@H](c1ccc(O)cc1O)CC2=O", "note": "[kurarinone]", "values": [
      {"measurement": "EC50", "setting": "[1]", "result": "71.3 ± 4.94", "unit": "µM"},
      {"measurement": "% stimulation of control agonist effect", "setting": "[1]; 100 μM, hD4, agonist mode, control 1000 nm DA", "result": "71.7 ± 6.36", "unit": "%"},
      {"measurement": "inhibition at 100 µM", "setting": "[1]; [17]", "result": -4.2, "unit": "%"},
      {"measurement": "IC50", "setting": "[2]", "result": "186 ± 6.17", "unit": "µM"},
      {"measurement": "Ki", "setting": "[2]; Ki hMAO-A, Dixon and secondary plots", "result": "65.1 ± 3.53", "unit": "µM"},
      {"measurement": "Inhibition type hMAO-A", "setting": "[2]; Lineweaver-Burk plots", "result": "competitive"},
      {"measurement": "IC50", "setting": "[3]", "result": "24.5 ± 1.73", "unit": "µM"},
      {"measurement": "inhibition at 50 µM", "setting": "[4]", "result": 47.6, "unit": "%"},
      {"measurement": "IC50", "setting": "[5]", "result": "5.29 ± 0.67", "unit": "µM"},
      {"measurement": "agonist response in antagonist mode assay", "setting": "[6]; 100 μM, D2LR, antagonist mode", "result": "at least 25%"},
      {"measurement": "% stimulation of control agonist effect", "setting": "[6]; 100 μM, hD2L, agonist mode, control 10 μM DA", "result": "113 ± 28.9", "unit": "%"},
      {"measurement": "agonist or agonist-like effect flag in antagonist mode", "setting": "[6]; 100 μM, hD2L, antagonist mode", "result": "AGO (the test compound induced at least 25% agonist or agonist-like effect at this concentration)"},
      {"measurement": "EC50", "setting": "[6]; EC50 (50% of control agonist effect), hD2L, agonist mode, mean ± S.D., duplicate", "result": "22.4 ± 3.46", "unit": "µM"},
      {"measurement": "inhibition at 100 µM", "setting": "[6]; [17]", "result": 43.8, "unit": "%"},
      {"measurement": "EC50", "setting": "[7]", "result": "8.1 ± 1.4", "unit": "µM"},
      {"measurement": "% inhibition of control-specific binding", "setting": "[8]", "result": 78.5, "unit": "%"},
      {"measurement": "% stimulation of control agonist effect", "setting": "[9]; 100 μM, h5-HT1A, agonist mode, control 0.625 μM 5-HT", "result": "17.8 ± 1.13", "unit": "%"},
      {"measurement": "inhibition at 100 µM", "setting": "[9]; [17]", "result": 30.3, "unit": "%"},
      {"measurement": "IC50", "setting": "[10]", "result": "198 ± 12.7", "unit": "µM"},
      {"measurement": "Inhibition type hMAO-B", "setting": "[10]; Lineweaver-Burk plots", "result": "mixed"},
      {"measurement": "inhibition at 50 µM", "setting": "[11]", "result": 49.2, "unit": "%"},
      {"measurement": "% inhibition of control-specific binding", "setting": "[12]", "result": 71.1, "unit": "%"},
      {"measurement": "% stimulation of control agonist effect", "setting": "[13]; 100 μM, hD1, agonist mode, control 10 μM DA", "result": "0.25 ± 0.64", "unit": "%"},
      {"measurement": "inhibition at 100 µM", "setting": "[13]; [17]", "result": 98.5, "unit": "%"},
      {"measurement": "% inhibition of control-specific binding", "setting": "[14]", "result": "> 70", "unit": "%"},
      {"measurement": "% inhibition of control-specific binding", "setting": "[14]; listed as Kurarinone", "result": 99.1, "unit": "%"},
      {"measurement": "IC50", "setting": "[15]", "result": "74.3 ± 7.85", "unit": "µM"}
    ]},
    {"smiles": "C=C(C)[C@H](CC=C(C)C)Cc1c(O)cc(O)c2c1O[C@H](c1ccc(O)cc1O)CC2=O", "note": "[sophoraflavone G]", "values": [
      {"measurement": "IC50", "setting": "[16]", "result": "38.8 ± 1.1", "unit": "µM"}
    ]}
  ]
}
